From the supplement of paper PMC6723410

tested on: GUMC-403; experiment: viability at highest tested concentration (max response) relative to DMSO (% of DMSO control); higher = less cytotoxic; conditions: library / dose series: MIPE library, 11-point 1:3 dilution; top concentration 23 µM; 48 h
Procedure, shortened: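 Conditionally reprogrammed GUMC-403 papilloma cells from a patient were plated at 700/well in 5 μL F + Y medium in 1536-well plates and left overnight at 37 °C. A pin tool then added 23 nL of library compounds as an 11-point 1:3 series, for 48 h. CellTiter-Glo luminescence was read on a ViewLux and scaled with vehicle wells set to 100% and empty wells to 0%. Each value gives viability at the highest tested concentration relative to vehicle control.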

Molecule `COc1cc(O)c2c(c1)C(=O)c1cc(C)cc(O)c1C2=O` has a viability of 114.

same assay, conditions: library / dose series: MIPE library, 11-point 1:3 dilution; top concentration 46.1 µM; 48 h

Going from `NC(=O)c1cccc2nc(-c3ccc([C@H]4CCCN4)cc3F)[nH]c12` to `OC(=O)C1=CC=C(NC2=NC3=C(C\N=C(/C4=CC(=CC=C34)Cl)C5=C(F)C=CC=C5F)C=N2)C=C1`, the viability rises from 116 to 131.

Compared with `O=C(C1CCCCC1)N1CC(=O)N2CCc3ccccc3C2C1` (stereo not given), `CC/1=C/C(=O)N(O)/C(=C1)C2CCCCC2` is lower in viability: 109 for the first, 27.2 for the second.

First: F\C1=C\NC(=O)NC1=O
Second: CCC\C1=C\C(=O)NC(=S)N1
The viability of the first is lower: 109 for the first, 110 for the second.

Compared with `O=C(Nc1ccccc1)Nc1ccc(-c2ccc(C(=O)[C@@H]3CCC[C@H]3C(=O)O)cc2)cc1`, `Cc1nc2c([nH]1)-c1ccccc1N(C(=O)c1ccc(NC(=O)c3ccccc3-c3ccccc3)cc1)CC2` is lower in viability: 128 for the first, 126 for the second.

Compared with `Cc1ccc(C(C)(O)c2nc3ccccc3s2)c(C)c1` (stereo not given), `CC(C(=O)O)c1ccc2c(c1)CC(=O)c1ccccc1S2` (stereo not given) is lower in viability: 115 for the first, 103 for the second.

Compared with `Cc1nc2ccc(CN(C)c3ccc(C(=O)N[C@@H](CCC(=O)O)C(=O)O)s3)cc2c(=O)[nH]1`, `CN(Cc1cnc2nc(N)nc(N)c2n1)c1ccc(C(=O)N[C@@H](CCC(=O)O)C(=O)O)cc1` is lower in viability: 116 for the first, 111 for the second.

Compared with `Cn1cc(-c2ccncc2)c(-c2ccc(OCc3ccc4ccccc4n3)cc2)n1`, `Cc1csc(-c2nnc(Nc3ccc(Oc4ncccc4-c4ccnc(N)n4)cc3)c3ccccc23)c1` is higher in viability: 98.3 for the first, 101 for the second.

Compared with `COc1cc2cc(c1Cl)N(C)C(=O)C[C@H](OC(=O)C(C)C)[C@]1(C)O[C@@H]1[C@H](C)[C@@H]1C[C@@](O)(NC(=O)O1)[C@H](OC)/C=C/C=C(\C)C2`, `C[C@@H]1C[C@H]2[C@@H]3CC\C4=C\C(=O)\C=C/[C@]4(C)[C@@]3(Cl)[C@@H](O)C[C@]2(C)[C@@]1(OC(=O)C5=CC=CO5)C(=O)CCl` is higher in viability: 122 for the first, 133 for the second.

Compared with `COc1cc2ncnc(Nc3cccc(Br)c3)c2cc1OC`, `C#Cc1cccc(Nc2ncnc3cc(OCCOC)c(OCCOC)cc23)c1` is lower in viability: 81.6 for the first, 47.6 for the second.

Compared with `FC1=CC=C(CN2\C=C/C=C(/C(=O)N[C@@H](COC3=CC4=C(NC(=O)N4)C=C3)C5=CC=CC=C5)C2=O)C=C1F`, `Clc1ccc(C(Cn2ccnc2)OCc2ccc(Sc3ccccc3)cc2)c(Cl)c1` (stereo not given) is higher in viability: 103 for the first, 118 for the second.

Going from `CCOC(=O)c1c(/C(C#N)=C\N)c2ccc(Cl)c(Cl)c2n1C` to `ClC1=CC=C2N/C3=N/C(=O)CN3CC2=C1Cl`, the viability rises from 92.2 to 94.9.

First: CCOC(=O)C(C)(C)Oc1ccc(Cl)cc1
Second: CCOc1ccc(Cc2cc([C@@H]3O[C@H](CO)[C@@H](O)[C@H](O)[C@H]3O)ccc2Cl)cc1
The viability of the first is lower: 110 for the first, 130 for the second.

Going from `O=C(Cc1ccc(-c2ccc(OCCN3CCOCC3)cc2)cn1)NCc1ccccc1` to `Cc1cc(C[S+](=O)([O-])c2ccccc2)cc(OCc2ccc(CN3CCC[C@@H]3CO)cc2)c1`, the viability rises from 104 to 116.

First: Cc1cnc(Nc2ccc(CN3CCOCC3)cc2)nc1Nc1cccc([S+](=O)([O-])NC(C)(C)C)c1
Second: Cc1cnc(Nc2cccc(CN3CCOCC3)c2)nc1Nc1cccc([S+](=O)([O-])NC(C)(C)C)c1
The viability of the first is lower: 31.1 for the first, 101 for the second.

Going from `C[C@]12CC[C@H]3[C@@H](C\C=C/4C[C@@H](O)CC[C@]34C)[C@@H]1CCC2=O` to `O=C1CC[C@@]2(O)[C@H]3Cc4ccc(O)c5c4[C@@]2(CCN3CC2CC2)[C@H]1O5`, the viability rises from 101 to 137.

Compared with `Nc1ccc([S+](=O)([O-])Nc2ccnn2-c2ccccc2)cc1`, `NC(=O)Cc1cccc(C(=O)c2ccccc2)c1N` is lower in viability: 133 for the first, 112 for the second.

First: COc1cc(N2CCN(C)CC2)ccc1Nc1nc(N)c(C(=O)c2c(Cl)cccc2Cl)s1
Second: NC1CCC(Nc2nc(Nc3ccc(C(=O)N4CCCCC4)cc3)c3ncn(-c4cccc(F)c4)c3n2)CC1 (stereo not given)
The viability of the first is higher: 120 for the first, 86 for the second.

First: CC(C)[C@@H](N(CCCN)C(=O)C1=CC=C(C)C=C1)C/2=C(\CC3=CC=CC=C3)C(=O)C4=C(O2)C=C(Cl)C=C4
Second: Cc1cc(OCCC[S+](C)(=O)[O-])cc(C)c1-c1cccc(COc2ccc3c(c2)OC[C@H]3CC(=O)O)c1
The viability of the first is higher: 119 for the first, 112 for the second.

Going from `NC/1=N/C(=O)N(/C=N1)[C@@H]2O[C@H](CO)[C@@H](O)[C@H]2O` to `NC/1=N/C(=O)N(/C=C1)[C@H]2CC[C@@H](CO)O2`, the viability falls from 103 to 84.4.

First: CC[C@H](NC(=O)[C@H](C)NC)C(=O)N1C[C@@H](O)C[C@H]1Cc1c(-c2[nH]c3cc(F)ccc3c2C[C@@H]2C[C@H](O)CN2C(=O)[C@H](CC)NC(=O)[C@H](C)NC)[nH]c2cc(F)ccc12
Second: CCNC(=O)CCC/C=C\C[C@@H]1[C@@H](/C=C/C(O)CCc2ccccc2)[C@@H](O)C[C@@H]1O (stereo not given in full)
The viability of the first is lower: 108 for the first, 109 for the second.

Going from `COc1c(C)c2c(c(O)c1C/C=C(\C)CCC(=O)O)C(=O)OC2` to `CC1=C(C)C(=O)C(C(CCCCCC(=O)O)c2ccccc2)=C(C)C1=O` (stereo not given), the viability rises from 106 to 110.

First: c1cc2c(cc1[C@H]1OC[C@H]3[C@@H]1CO[C@@H]3c1ccc3c(c1)OCO3)OCO2
Second: COc1cc([C@H]2Oc3cc([C@H]4Oc5cc(O)cc(O)c5C(=O)[C@@H]4O)ccc3O[C@@H]2CO)ccc1O
The viability of the first is higher: 124 for the first, 83.9 for the second.

Compared with `CNC[C@H](O)[C@@H](O)[C@H](O)[C@H](O)CO`, `CN(N=O)C(=O)N[C@H]1C(O)OC(CO)[C@@H](O)[C@@H]1O` (stereo not given in full) is lower in viability: 136 for the first, 113 for the second.

First: C[C@@H]1C(=O)OC2[C@H](O)[C@]34[C@H]5C[C@@H](C(C)(C)C)[C@]36[C@@H](OC(=O)[C@@H]6O)O[C@@]4(C(=O)O5)[C@]21O (stereo not given in full)
Second: CC1(C)C(N(O)C(=O)Nc2ccc(Cl)cc2)N(c2ccc(Cl)cc2)C(=O)N1CC(=O)N/N=C/C=C/c1ccc([N+](=O)[O-])o1 (stereo not given)
The viability of the first is higher: 108 for the first, 85.4 for the second.

First: Clc2cccc(Cl)c2\N=C1/NCCN1
Second: Nc1nnc(-c2cccc(Cl)c2Cl)c(N)n1
The viability of the first is higher: 132 for the first, 82.5 for the second.

Going from `COC(c1ccccc1)(c1ccccc1)[C@H](Oc1nc(C)cc(C)n1)C(=O)O` to `CN(C)CCOC(c1ccccc1)c1ccccc1`, the viability falls from 136 to 120.

Going from `C[C@@H]1CCN(C(=O)CC#N)C[C@@H]1N(C)c1ncnc2[nH]ccc12` to `Cc1cnc(-c2cc(N3CCN(C(=O)CC[S+](C)(=O)[O-])CC3)ncc2Cl)c(C)c1`, the viability falls from 79.1 to 72.3.

First: Cc1ccc(NC(=O)Nc2cc(C(F)(F)F)ccc2F)cc1Nc1ccc2c(c1)NC(=O)/C2=C\c1ccc[nH]1
Second: ClC1=CC=C(CCCOC/2=N/NC(=O)C(=C2NCC3=CN=CC=C3)/Br)C=C1
The viability of the first is higher: 99.8 for the first, 83.2 for the second.

Going from `C[C@@H]1[C@H](O)[C@@H](C)/C=C/C=C/C=C/C=C/C=C/C=C/C=C/[C@H](O[C@@H]2O[C@H](C)[C@@H](O)[C@H](N)[C@@H]2O)C[C@@H]2O[C@](O)(C[C@@H](O)C[C@@H](O)[C@H](O)CC[C@@H](O)C[C@@H](O)CC(=O)O[C@H]1C)C[C@H](O)[C@H]2C(=O)O` to `Cn1cc(/C=C/C(=O)c2cccc(F)c2)cc1/C=C/C(=O)NO`, the viability falls from 123 to 103.

same assay, conditions: library / dose series: MIPE library, 11-point 1:3 dilution; top concentration 92.2 µM; 48 h

For `C[S+]([O-])c1ccc(-c2nc(-c3ccc(F)cc3)c(-c3ccncc3)[nH]2)cc1` (stereo not given), the viability was 71.3.
